Assay results from patent US20260345619A1 (Principia Biopharma Inc., priority 2023, published 2026).

Test: Asthma Quality of Life Questionnaire with Standardized Activities (AQLQ(S))
Format: in vivo, human
Settings: mITT
Excerpt: The AQLQ(S) is a self-administered patient reported outcome to measure the functional impairments that are most troublesome to adolescents and adults ≥12 years of age as a result of their asthma.
Asthma Quality of Life Questionnaire with Standardized Activities (AQLQ(S)) self-administered (≥12 years)
The AQLQ(S) was designed as a self-administered patient reported outcome to measure the functional impairments that are most troublesome to adolescents and adults ≥12 years of age as a result of their asthma. The instrument is comprised of 32 items, each rated on a 7-point Likert scales from 1 to 7. The AQLQ(S) has 4 domains. The domains and the number of items in each domain are as follows: • Symptoms (12 items) • Activity limitation (11 items) • Emotional function (5 items) • Environmental stimuli (4 items)
A global score is calculated ranging from 1 to 7 and a score by domain. Higher scores indicate better quality of life. […] Patients were to complete the questionnaire in an electronic diary during on-site visits.
Secondary endpoints included pre-bronchodilator FEV1 change from baseline at EOT, ACQ-5 score change from baseline, and AQLQ score change from baseline. Other secondary and exploratory endpoints are described in Table 2.

CC(C)(C=C(C#N)C(=O)N1CCC[C@@H](n2nc(-c3ccc(Oc4ccccc4)cc3F)c3c(N)ncnc32)C1)N1CCN(C2COC2)CC1 (mixture of isomers) [rilzabrutinib, (R)-2-[3-[4-amino-3-(2-fluoro-4-phenoxy-phenyl)pyrazolo[3,4-d]pyrimidin-1-yl]piperidine-1-carbonyl]-4-methyl-4-[4-(oxetan-3-yl)piperazin-1-yl]pent-2-enenitrile]
AQLQ(S) Activity limitation score, Mean (Week 4, 400 mg TID): 5.15 | AQLQ(S) Activity limitation score, Median (Week 4, 400 mg TID): 5.18 | AQLQ(S) Activity limitation score, change from baseline, LS Mean (Week 4, 400 mg TID): 0.34 | AQLQ(S) Activity limitation score, change from baseline, Mean (Week 4, 400 mg TID): 0.16 | AQLQ(S) Activity limitation score, change from baseline, Median (Week 4, 400 mg TID): 0.09 | AQLQ(S) Emotional function score, Mean (Week 4, 400 mg TID): 5.37 | AQLQ(S) Emotional function score, Median (Week 4, 400 mg TID): 5.40 | AQLQ(S) Emotional function score, change from baseline, LS Mean (Week 4, 400 mg TID): 0.35 | AQLQ(S) Emotional function score, change from baseline, Mean (Week 4, 400 mg TID): 0.22 | AQLQ(S) Emotional function score, change from baseline, Median (Week 4, 400 mg TID): 0.20 | AQLQ(S) Environmental stimuli score, Mean (Week 4, 400 mg TID): 4.78 | AQLQ(S) Environmental stimuli score, change from baseline, LS Mean (Week 4, 400 mg TID): 0.30 | AQLQ(S) Environmental stimuli score, change from baseline, Mean (Week 4, 400 mg TID): 0.12 | AQLQ(S) Environmental stimuli score, change from baseline, Median (Week 4, 400 mg TID): 0.25 | AQLQ(S) Global score, Mean (Week 4, 400 mg TID): 5.16 | AQLQ(S) Global score, Median (Week 4, 400 mg TID): 5.03 | AQLQ(S) Global score, change from baseline, LS Mean (Week 4, 400 mg TID): 0.33 | AQLQ(S) Global score, change from baseline, Mean (Week 4, 400 mg TID): 0.19 | AQLQ(S) Global score, change from baseline, Median (Week 4, 400 mg TID): 0.13 | AQLQ(S) Symptoms score, Mean (Week 4, 400 mg TID): 5.19 | AQLQ(S) Symptoms score, Median (Week 4, 400 mg TID): 5.08 | AQLQ(S) Symptoms score, change from baseline, LS Mean (Week 4, 400 mg TID): 0.38 | AQLQ(S) Symptoms score, change from baseline, Mean (Week 4, 400 mg TID): 0.22 | AQLQ(S) Symptoms score, change from baseline, Median (Week 4, 400 mg TID): 0.25 | AQLQ(S) Emotional function score, change from baseline, LS Mean Diff vs. placebo (Week 4, 400 mg TID, 95% CI −0.12, 0.54): 0.21 | AQLQ(S) Symptoms score, change from baseline, LS Mean Diff vs. placebo (Week 4, 400 mg TID, 95% CI −0.14, 0.44): 0.15 | AQLQ(S) Global score, change from baseline, LS Mean Diff vs. placebo (Week 4, 400 mg TID, 95% CI −0.18, 0.36): 0.09 | AQLQ(S) Activity limitation score, change from baseline, LS Mean Diff vs. placebo (Week 4, 400 mg TID, 95% CI −0.20, 0.35): 0.08 | AQLQ(S) Environmental stimuli score, change from baseline, LS Mean Diff vs. placebo (Week 4, 400 mg TID, 95% CI −0.37, 0.30): −0.03 | AQLQ(S) Activity limitation score, Mean (Week 8, 400 mg BID): 5.72 | AQLQ(S) Activity limitation score, Median (Week 8, 400 mg BID): 5.91 | AQLQ(S) Activity limitation score, change from baseline, LS Mean (Week 8, 400 mg BID): 0.89 | AQLQ(S) Activity limitation score, change from baseline, Mean (Week 8, 400 mg BID): 0.96 | AQLQ(S) Activity limitation score, change from baseline, Median (Week 8, 400 mg BID): 0.82 | AQLQ(S) Emotional function score, Mean (Week 8, 400 mg BID): 6.12 | AQLQ(S) Emotional function score, Median (Week 8, 400 mg BID): 6.20 | AQLQ(S) Emotional function score, change from baseline, LS Mean (Week 8, 400 mg BID): 1.06 | AQLQ(S) Emotional function score, change from baseline, Mean (Week 8, 400 mg BID): 0.87 | AQLQ(S) Emotional function score, change from baseline, Median (Week 8, 400 mg BID): 0.60 | AQLQ(S) Environmental stimuli score, Mean (Week 8, 400 mg BID): 5.19 | AQLQ(S) Environmental stimuli score, change from baseline, LS Mean (Week 8, 400 mg BID): 0.66 | AQLQ(S) Environmental stimuli score, change from baseline, Mean (Week 8, 400 mg BID): 0.73 | AQLQ(S) Environmental stimuli score, change from baseline, Median (Week 8, 400 mg BID): 0.50 | AQLQ(S) Global score, Mean (Week 8, 400 mg BID): 5.79 | AQLQ(S) Global score, Median (Week 8, 400 mg BID): 5.88 | AQLQ(S) Global score, change from baseline, LS Mean (Week 8, 400 mg BID): 0.92 | AQLQ(S) Global score, change from baseline, Mean (Week 8, 400 mg BID): 0.90 | AQLQ(S) Global score, change from baseline, Median (Week 8, 400 mg BID): 0.63 | AQLQ(S) Symptoms score, Mean (Week 8, 400 mg BID): 5.93 | AQLQ(S) Symptoms score, Median (Week 8, 400 mg BID): 6.00 | AQLQ(S) Symptoms score, change from baseline, LS Mean (Week 8, 400 mg BID): 0.99 | AQLQ(S) Symptoms score, change from baseline, Mean (Week 8, 400 mg BID): 0.91 | AQLQ(S) Symptoms score, change from baseline, Median (Week 8, 400 mg BID): 0.83 | AQLQ(S) Environmental stimuli score, change from baseline, LS Mean Diff vs. placebo (Week 8, 400 mg BID, 95% CI 0.03, 1.33): 0.68 | AQLQ(S) Symptoms score, change from baseline, LS Mean Diff vs. placebo (Week 8, 400 mg BID, 95% CI 0.35, 1.18): 0.76 | AQLQ(S) Global score, change from baseline, LS Mean Diff vs. placebo (Week 8, 400 mg BID, 95% CI 0.39, 1.20): 0.79 | AQLQ(S) Activity limitation score, change from baseline, LS Mean Diff vs. placebo (Week 8, 400 mg BID, 95% CI 0.39, 1.21): 0.80 | AQLQ(S) Emotional function score, change from baseline, LS Mean Diff vs. placebo (Week 8, 400 mg BID, 95% CI 0.42, 1.54): 0.98 | AQLQ(S) Activity limitation score, Mean (Week 8, 400 mg TID): 5.28 | AQLQ(S) Activity limitation score, Median (Week 8, 400 mg TID): 5.27 | AQLQ(S) Activity limitation score, change from baseline, LS Mean (Week 8, 400 mg TID): 0.42 | AQLQ(S) Activity limitation score, change from baseline, Mean (Week 8, 400 mg TID): 0.29 | AQLQ(S) Activity limitation score, change from baseline, Median (Week 8, 400 mg TID): 0.36 | AQLQ(S) Emotional function score, Mean (Week 8, 400 mg TID): 5.52 | AQLQ(S) Emotional function score, Median (Week 8, 400 mg TID): 5.40 | AQLQ(S) Emotional function score, change from baseline, LS Mean (Week 8, 400 mg TID): 0.51 | AQLQ(S) Emotional function score, change from baseline, Mean (Week 8, 400 mg TID): 0.37 | AQLQ(S) Emotional function score, change from baseline, Median (Week 8, 400 mg TID): 0.40 | AQLQ(S) Environmental stimuli score, Mean (Week 8, 400 mg TID): 4.90 | AQLQ(S) Environmental stimuli score, change from baseline, LS Mean (Week 8, 400 mg TID): 0.36 | AQLQ(S) Environmental stimuli score, change from baseline, Mean (Week 8, 400 mg TID): 0.24 | AQLQ(S) Environmental stimuli score, change from baseline, Median (Week 8, 400 mg TID): 0.25
